Laboratory results taken from patent US20050222251A1, “Dual inhibition of cyclooxygenase-2 and carbonic anhydrase” (AMOREPACIFIC CORPORATION, priority 2004, published 2005).
Where two headings read alike, the source gives them in different places. One block for each compound: values may come before it.

Key:
[1] = test system: carrageenan-induced thermal hyperalgesia; details: male SD rats, orally administered; cited from earlier work
Human CA II [2] = molecular target: T1, Human CA II (Homo sapiens, UniProt P00918); assay: Inhibition assay for CA (Method A), CA II; type: biochemical; details: CO2 hydration, phenol red
T1 construct: purchased Sigma C-4936
Experimental: (§1) Compounds of Formula I were assessed for their inhibitory activities against human CAs according to methods described in a literature and a prior art. […] Details of the employed assay methods (Method A and Method B) for the inhibition of CAs are provided in the section of “MATERIALS AND METHODS” of this invention. Provided below are some of compounds of Formula I assayed for the inhibition of CAs. [drawing 6] [drawing 7] [drawing 8]
(§2) DMSO and buffer agents were obtained from Sigma. Distilled water was prepared in-house by distilling deionized water.
(§3) Inhibition Assay for CA (Method A): CA inhibitory activities by COX-2 inhibitors of this invention were assessed by a previously reported method. […] Then the interval was measured from the initiation of the reaction to the point of the color change of the solution from purple to yellow. During the entire reaction, the reaction solution was kept bubbled with CO2.

[3] = Repeat dose toxicity study in monkeys
Experimental: Toxicokinetic studies were performed with treatment groups in monkeys. Satellite toxicokinetic groups were used for the toxicokinetic studies of treatment groups in rats. Animals at terminal sacrifice were evaluated for histopathological findings in the GI tract and other organs.

[4] = Repeat dose toxicity study in rats; type: in vivo, rat
Human CA I [5] = molecular target: T2, Human CA I (Homo sapiens, UniProt P00915); assay: Inhibition assay for CA (Method B, esterase activity), CA I; type: biochemical; details: p-nitrophenylacetate hydrolysis, pH 7.6
T2 construct: purchased Sigma C-6165
T2 sequence (P00915 whole entry): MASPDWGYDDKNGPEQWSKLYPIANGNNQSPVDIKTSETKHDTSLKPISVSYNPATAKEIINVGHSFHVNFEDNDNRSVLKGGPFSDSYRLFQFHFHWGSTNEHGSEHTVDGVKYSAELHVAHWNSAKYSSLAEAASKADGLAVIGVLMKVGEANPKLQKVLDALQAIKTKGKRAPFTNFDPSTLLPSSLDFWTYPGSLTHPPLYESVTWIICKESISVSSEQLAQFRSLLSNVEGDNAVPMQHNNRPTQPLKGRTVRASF
Experimental: as §1, §2
(§4) The employed method is briefly described as follows. An aqueous reaction mixture consisting of 2 Wilbur-Anderson units of CA, 4 mM p-nitrophenylacetate, 5% DMSO, 0.1 M Na2SO4, and 50 mM Tris-HCl buffer at pH 7.6 was prepared to contain a designated amount of inhibitor. The esterase activity of CA (the hydrolysis of p-nitrophenylacetate) was followed by the increases in absorbance at 405 nm using an ELISA reader at room temperature. The initial rate (slope of the initial absorbance data) data from the absorbance data were used to calculate % inhibition of CA at a designated concentration of inhibitor according to equation (7). % Inhibition=[1−(Initial Rate with Inhibitor)/(Initial Rate without Inhibitor)]×100 (7)

[6] = Plasma protein binding, filtration method, 14C-labeled compound; type: in vitro ADME; details: Sprague-Dawley (SD), rat, broad range of concentrations
Experimental: Alternatively, plasma protein binding was determined by a filtration method employing a ^14C-labeled compound of Formula I. Scintillation counting was used for analysis in place of HPLC.

[7] = Pharmacokinetic studies in rats; type: in vivo; details: rat, plasma
Experimental: Pharmacokinetic Studies in Rats: An appropriate amount of a compound suspended in 1% aqueous methylcelluose solution was administered to male SD rats by oral gavage. Blood samples were collected from the retro-orbital sinus at designated time points over 0 to 24 hours post dose. Plasma was separated from each withdrawn blood sample by centrifugation and the plasma sample was stored at 4° C. until HPLC analysis for the quantification of the compound. The plasma samples were analyzed by reverse phase HPLC using an appropriate internal standard and a pre-established calibration curve.

Human CA II [8] = molecular target: T1, Human CA II; assay: Inhibition assay for CA (Method B, esterase activity), CA II; type: biochemical; details: p-nitrophenylacetate hydrolysis, pH 7.6
Experimental: as §1, §2, §4

[9] = test system: adjuvant-induced arthritis; details: male Lewis rats, oral, bid; cited from earlier work
[10] = Plasma protein binding, filtration method, HPLC; type: in vitro ADME; details: male, SD; pooled rat plasma at 1 μg/ml
Experimental: Plasma Protein Binding of Compound: Plasma protein binding was determined for a compound of Formula I by a filtration method. An aliquot of a compound stock solution in DMSO was added to a designated volume of freshly prepared pooled plasma from male SD rats. The plasma solution was then subjected to filtration using a centrifuge filter (Amicon YM-30) at 4000 g for 30 min. The filtrate was analyzed by HPLC to determine the concentration of the compound.

[11] = Partitioning between plasma and erythrocytes, 14C-labeled compound; type: in vitro ADME
Experimental: Alternatively, partitioning between plasma and erythrocytes was determined by using a ^14C-labeled compound of Formula I and whole blood withdrawn as heparinized. Scintillation counting was used for analysis in place of HPLC.

Human CA I [12] = molecular target: T2, Human CA I; assay: Inhibition assay for CA (Method A), CA I; type: biochemical; details: CO2 hydration, phenol red
Experimental: as §1, §2, §3

[13] = cited from earlier work; for primary target sites of the GI adverse events: repeated oral administrations
[14] = cited from earlier work
intraocular pressure = details: oral administration, hypertensive rabbits; cited from earlier work
[15] = FDA pharmacology review; valdecoxib in human whole blood; cited from earlier work
[16] = human whole blood, FDA pharmacology review; cited from earlier work
[17] = repeated oral administrations for 4 weeks

Structure (SMILES): CC1(C)OC(c2ccc(S(N)(=O)=O)c(F)c2)=C(c2cccc(F)c2)C1=O [Example 4, 5-{4-(aminosulfonyl)-3-fluorophenyl}-2,2-dimethyl-4-(3-fluorophenyl)-3(2H)furanone]
IC50 (Human CA II [2]): 450 nM | IC50 (Human CA I [5]): 210 nM | IC50 (Human CA II [8]): 27 nM | IC50 (Human CA I [12]): 1700 nM

Structure (SMILES): CC1(C)OC(c2ccc(S(N)(=O)=O)cc2F)=C(c2ccc(F)cc2)C1=O [Example 8, 5-{4-(aminosulfonyl)-2-fluorophenyl}-2,2-dimethyl-4-(4-fluorophenyl)-3(2H)furanone]
IC50 (Human CA II [2]): 420 nM | IC50 (Human CA I [12]): 1900 nM

Structure (SMILES): Cc1cnc(NC(=O)C2=C(O)c3ccccc3S(=O)(=O)N2C)s1 [Meloxicam]
primary target sites of the GI adverse events ([13]; rats): duodenum

Structure (SMILES): Cc1ccc(-c2cc(C(F)(F)F)nn2-c2ccc(S(N)(=O)=O)cc2)cc1 [celecoxib]
thromboembolic events ([14]; 400 mg/day and 800 mg/day, long term cancer prevention trial (APC)): increases in the thromboembolic events | gastric toxicity ([13]; rat, in vivo): not associated with gastric toxicity | primary target sites of the GI adverse events ([13]; rats): jejunum and ileum

Structure (SMILES): O=C(O)Cc1ccccc1Nc1c(Cl)cccc1Cl [diclofenac]
effect on intraocular pressure (intraocular pressure): failed to reduce the intraocular pressure

Structure (SMILES): COc1ccc2c(c1)c(CC(=O)O)c(C)n2C(=O)c1ccc(Cl)cc1 [indomethacin, reference compound]
ED50 in carrageenan-induced thermal hyperalgesia [1]: ~1.0 mg/kg | ED50 by adjuvant-induced arthritis [9]: 0.3 mg/kg/day

Structure (SMILES): CS(=O)(=O)c1ccc(C2=C(c3ccccc3)C(=O)OC2)cc1 [rofecoxib]
thromboembolic cardiovascular events ([14]; 25 mg/day, long term cancer prevention trial (APPROVe)): increased risk of thromboembolic cardiovascular events | plasma protein binding [15]: 87% | gastric toxicity ([13]; rats, doses where the intestinal toxicity began to come out): not associated with gastric toxicity | primary target sites of the GI adverse events ([13]; rats): jejunum and ileum | distribution ratio erythrocytes over plasma [16]: no noticeable preferential distribution

Structure (SMILES): Cc1onc(-c2ccccc2)c1-c1ccc(S(N)(=O)=O)cc1 [valdecoxib]
thromboembolic events ([14]; acute use, coronary artery bypass graft patients): increase in the thromboembolic events | plasma protein binding [15]: 98% | gastric toxicity ([13]; rat, in vivo): not associated with gastric toxicity | effect on intraocular pressure (intraocular pressure): reduced intraocular pressure

Now from value to compound, other results behind:

IC50 (Human CA II [2]): 800 nM | IC50 (Human CA I [5]): 290 nM | fraction unbound [6]: ~0.1 | Cmax ([7]; male, SD, oral, 0.05 mg/kg, 82 ng/ml divided by 20, read-out: Cmax calculated for 0.1 mg/kg/day, bid (0.05 mg/kg)): 4.1 ng/mL | Cmax ([7]; oral 1 mg/kg, male SD rats, read-out: plasma Cmax): 82 ng/mL | IC50 (Human CA II [8]): 63 nM | fraction unbound at 1 μg/ml [10]: < 0.01 | IC50 (Human CA I [12]): 3000 nM
Structure (SMILES): CC1(C)OC(c2ccc(S(N)(=O)=O)cc2)=C(c2cccc(F)c2)C1=O [Example 1, 5-{4-(aminosulfonyl)phenyl}-2,2-dimethyl-4-(3-fluorophenyl)-3(2H)furanone]
ED50 in carrageenan-induced thermal hyperalgesia [1]: 0.25 mg/kg | histopathological findings in the stomach ([3]; 4 weeks, one out of 18 subjects): one case of focal mucosal degeneration in the stomach | daily systemic exposure of the subject with the histopathological finding in the stomach ([3]; final day of the treatment): > 20,000 hr×ng/ml | histopathological findings in the intestines [3, 17]: not associated with positive histopathological findings in the intestines | primary target site of the intestinal adverse findings [4]: caecum | dose limiting adverse effects ([4]; oral, up to 4 weeks): Intestinal adverse effects (primarily in the caecum) | daily systemic exposure without positive histopathological findings in the stomach [4, 17]: ~30,000 hr×ng/ml | histopathological findings in the stomach ([4]; repeated oral administrations for 4 weeks, daily systemic exposure of ca 30,000 hr×ng/ml): no positive histopathological findings in the stomach | ED50 by adjuvant-induced arthritis [9]: 0.1 mg/kg/day | distribution to erythrocytes over plasma [11]: even more preferentially distribute to erythrocytes over plasma

IC50 (Human CA II [2]): 740 nM | IC50 (Human CA I [12]): 3200 nM
Structure (SMILES): CC1(C)OC(c2ccc(S(N)(=O)=O)cc2)=C(c2cc(F)ccc2F)C1=O [Example 2, 5-{4-(aminosulfonyl)phenyl}-4-(2,5-difluorophenyl)-2,2-dimethyl-3(2H)furanone]

IC50 (Human CA II [2]): 480 nM | IC50 (Human CA I [5]): 240 nM | IC50 (Human CA II [8]): 14 nM | IC50 (Human CA I [12]): 1300 nM
Structure (SMILES): CC1(C)OC(c2ccc(S(N)(=O)=O)c(F)c2)=C(c2cc(F)ccc2F)C1=O [Example 5, 5-{4-(aminosulfonyl)-3-fluorophenyl}-4-(2,5-difluorophenyl)-2,2-dimethyl-3(2H)furanone]

IC50 (Human CA II [2]): 910 nM | IC50 (Human CA I [12]): 5000 nM
Structure (SMILES): CC1(C)OC(c2ccc(S(N)(=O)=O)c(F)c2)=C(c2ccc(F)c(F)c2)C1=O [Example 6, 5-{4-(aminosulfonyl)-3-fluorophenyl}-4-(3,4-difluorophenyl)-2,2-dimethyl-3(2H)furanone]

IC50 (Human CA II [2]): 630 nM | IC50 (Human CA I [12]): 3400 nM
Structure (SMILES): CC1(C)OC(c2ccc(S(N)(=O)=O)c(F)c2)=C(c2cc(F)cc(F)c2)C1=O [Example 7, 5-{4-(aminosulfonyl)-3-fluorophenyl}-4-(3,5-difluorophenyl)-2,2-dimethyl-3(2H)furanone]

IC50 (Human CA II [2]): 630 nM | IC50 (Human CA I [12]): 4700 nM
Structure (SMILES): CC1(C)OC(c2ccc(S(N)(=O)=O)cc2F)=C(c2cc(F)cc(F)c2)C1=O [Example 9, 5-{4-(aminosulfonyl)-2-fluorophenyl}-4-(3,5-difluorophenyl)-2,2-dimethyl-3(2H)furanone]

IC50 (Human CA II [2]): 5400 nM | IC50 (Human CA I [12]): 9100 nM
Structure (SMILES): Cc1cc(C2=C(c3cccc(F)c3)C(=O)C(C)(C)O2)ccc1S(N)(=O)=O [Example 10, 5-{4-(aminosulfonyl)-3-methylphenyl}-2,2-dimethyl-4-(3-fluorophenyl)-3(2H)furanone]
